This test deals with Phaeosphaeria nodorum (Septoria nodorum). The test can be described thus: Phaeosphaeria nodorum (Septoria nodorum) / wheat / leaf disc preventative (glume blotch). In kind it is in vivo. The conditions noted are these: Parastagonospora nodorum, foliar, wheat leaf segments cv. Kanzler on agar, inoculated 2 days after application, vs untreated control, read-out: disease control. As for the experimental part:
Phaeosphaeria nodorum (Septoria nodorum)/Wheat/Leaf Disc Preventative (Glume Blotch) Wheat leaf segments cv. Kanzler are placed on agar in a multiwell plate (24-well format) and sprayed with the formulated test compound diluted in water. The leaf disks are inoculated with a spore suspension of the fungus 2 days after application. The inoculated test leaf disks are incubated at 20° C. and 75% rh under a light regime of 12 h light/12 h darkness in a climate cabinet and the activity of a compound is assessed as percent disease control compared to untreated when an appropriate level of disease damage appears in untreated check leaf disks (5-7 days after application).

For `COc1ccc(OC)c(Cc2cccc(-c3ncc4ccccc4n3)n2)c1` [6/43], the pest or weed control at 200 ppm was at least 80%.
In the case of `OCc1c(-c2cccc(-c3ncc4ccccc4n3)n2)ccc2ccccc12` [2/115] it was at least 80%; in that of `Cc1c(F)cccc1-c1cccc(-c2ncc3ccccc3n2)n1` [2/124], at least 80%.
On to `Cc1ccc(-c2ncc3ccccc3n2)nc1-c1cccc(C#N)c1` [3/132], for which the pest or weed control at 200 ppm is at least 80%.
The result for `COc1ccc(Cc2cccc(-c3ncc4ccccc4n3)n2)c(Cl)c1Cl` [6/23] reads at least 80%; that for `COC(=O)Nc1ccc(Cc2cccc(-c3ncc4ccccc4n3)n2)cc1` [6/39], at least 80%.
As for `Cc1ccc(-c2ncc3ccccc3n2)nc1-c1ccc(Cl)cc1C(F)(F)F` [3/129], the pest or weed control at 200 ppm was at least 80%.
For `Cc1ccc(-c2ncc3ccccc3n2)nc1-c1ccc2ccccc2c1` [3/106], the pest or weed control at 200 ppm is at least 80%.
The result for `CCc1nc(-c2cccc(Cc3ccccc3)n2)nc2ccccc12` [12/15] reads at least 80%; that for `Cc1ccc(-c2ncc3ccccc3n2)nc1-c1ccc(CC#N)cc1` [3/126], at least 80%; that for `CCCc1nc(-c2cccc(C(Cc3ccccc3)c3ccccc3)n2)nc2ccccc12` (centres unmarked) [12/13], at least 80%.
The result for `Fc1ccc(Cc2cccc(-c3ncc4ccccc4n3)n2)cc1F` [6/24] reads at least 80%; that for `COC(=O)c1ccc(-c2nc(-c3ncc4ccccc4n3)ccc2C)cc1` [3/103], at least 80%; that for `COc1ccc(-c2ncc3ccccc3n2)nc1-c1ccccc1` [14/4], at least 80%.
The result for `COc1ccc(-c2ncc3ccccc3n2)nc1-c1ccc(F)cc1` [14/5] reads at least 80%.
For the molecule `CC(C)Oc1nc(-c2cccc(Cc3ccccc3)n2)nc2ccccc12` [12/9], the pest or weed control at 200 ppm is at least 80%.
The result for `Fc1cc(F)c(-c2cccc(-c3ncc4ccccc4n3)n2)c(F)c1` [2/132] reads at least 80%.
The result for `Fc1ccc(Cc2cccc(-c3ncc4ccccc4n3)n2)c(F)c1F` [6/28] reads at least 80%; that for `c1ccc(CCc2cccc(-c3ncc4ccccc4n3)n2)cc1` [10/17], at least 80%.
The result for `Cc1ccc(-c2ncc3ccccc3n2)nc1-c1c(F)cccc1F` [3/105] reads at least 80%; that for `Cc1ccc(-c2ncc3c(C)cccc3n2)nc1-c1ccccc1` [11/18], at least 80%; that for `Cc1cc(C)c(Cc2cccc(-c3ncc4ccccc4n3)n2)c(C)c1` [6/40], at least 80%.
For the molecule `C(=C\c1cccc(-c2ncc3ccccc3n2)n1)/c1ccccc1` [10/20], the pest or weed control at 200 ppm is at least 80%.
The result for `COc1cc(-c2nc(-c3ncc4ccccc4n3)ccc2C)cc(OC)c1OC` [3/110] reads at least 80%; that for `Cc1ccc(Cc2cccc(-c3ncc4ccccc4n3)n2)c(C)c1` [6/38], at least 80%; that for `Cc1ccc(-c2nc(C)c3c(C)cccc3n2)nc1-c1ccccc1` [11/21], at least 80%.
In the case of `Cc1ccc(Cc2cccc(-c3ncc4ccccc4n3)n2)cc1Cl` [6/42] it was at least 80%.
`Fc1cc(Br)ccc1Cc1cncc(-c2ncc3ccccc3n2)c1` [6/35]: the pest or weed control at 200 ppm was at least 80%.
The result for `COC(=O)c1ccccc1-c1cccc(-c2ncc3ccccc3n2)n1` [2/130] reads at least 80%; that for `Cc1ccc(-c2ncc3ccc(Cl)cc3n2)nc1-c1ccccc1` [11/11], at least 80%; that for `Cc1ccc(-c2ncc3ccccc3n2)nc1-c1ccc(CO)cc1` [3/139], at least 80%.
For the molecule `N#Cc1ccc(Cc2cccc(-c3ncc4ccccc4n3)n2)cc1` [6/31], the pest or weed control at 200 ppm is at least 80%.
`COc1cccc(Cc2cccc(-c3ncc4ccccc4n3)n2)c1OC` [6/30]: the pest or weed control at 200 ppm is at least 80%.
Regarding `Fc1cccc(F)c1-c1cccc(-c2ncc3ccccc3n2)n1` [2/104], the pest or weed control at 200 ppm was at least 80%.
In the case of `Cc1cc(-c2cccc(-c3ncc4ccccc4n3)n2)c(C)cc1F` [2/133] it was at least 80%; in that of `COc1ccc(-c2ncc3ccccc3n2)nc1-c1ccc(C)cc1` [14/2], at least 80%; in that of `CSc1cccc(-c2nc(-c3ncc4ccccc4n3)ccc2C)c1` [3/125], at least 80%.
On to `Cc1ccc(-c2ncc3ccccc3n2)nc1/C=C/c1ccccc1` [10/23], for which the pest or weed control at 200 ppm was at least 80%.
In the case of `COc1ccc(C=O)cc1-c1cccc(-c2ncc3ccccc3n2)n1` [2/125] it was at least 80%; in that of `COc1cccc(OC)c1-c1nc(-c2ncc3ccccc3n2)ccc1C` [3/135], at least 80%; in that of `c1cc(-c2ncc3ccccc3n2)nc(-c2cc3ccccc3c3ccccc23)c1` [2/119], at least 80%.
The result for `COc1ccc2nc(-c3ccc(C)c(-c4ccccc4)n3)ncc2c1` [11/19] reads at least 80%; that for `OCc1cc(F)ccc1-c1cccc(-c2ncc3ccccc3n2)n1` [2/117], at least 80%; that for `Fc1ccc(Br)c(Cc2cccc(-c3ncc4ccccc4n3)n2)c1` [6/34], at least 80%.
The result for `Cc1ccc(-c2ncc3ccccc3n2)nc1-c1cccc(Cl)c1` [3/109] reads at least 80%.
Consider `N#Cc1ccccc1-c1cccc(-c2ncc3ccccc3n2)n1` [2/61], for which the pest or weed control at 200 ppm is at least 80%.
The result for `C(=C/c1cccc(-c2ncc3ccccc3n2)n1)/c1ccccc1` [10/21] reads at least 80%.
The result for `Fc1c(Cl)cccc1Cc1cccc(-c2ncc3ccccc3n2)n1` [6/22] reads at least 80%; that for `Cc1ccc(-c2ncc3ccccc3n2)nc1/C=C\c1ccccc1` [10/22], at least 80%; that for `CCCc1ccc(-c2nc(-c3ncc4ccccc4n3)ccc2C)cc1` [3/114], at least 80%.
As for `COc1cc(F)c(F)cc1-c1cccc(-c2ncc3ccccc3n2)n1` [2/128], the pest or weed control at 200 ppm is at least 80%.
In the case of `Cc1ccc(C)c(Cc2cccc(-c3ncc4ccccc4n3)n2)c1` [6/41] it was at least 80%; in that of `Cc1ccc(-c2nc(C)c3cccc(C)c3n2)nc1-c1ccccc1` [11/16], at least 80%.
In the case of `CC(=O)c1ccccc1-c1nc(-c2ncc3ccccc3n2)ccc1C` [3/108] it was at least 80%; in that of `O=Cc1c(F)ccc(-c2cccc(-c3ncc4ccccc4n3)n2)c1F` [2/110], at least 80%; in that of `Cc1ccc(-c2ncc3cccc(Cl)c3n2)nc1-c1ccccc1` [11/13], at least 80%.
The result for `OCc1cc2ccccc2cc1-c1cccc(-c2ncc3ccccc3n2)n1` [2/116] reads at least 80%; that for `COc1cc(F)c(F)cc1-c1nc(-c2ncc3ccccc3n2)ccc1C` [3/137], at least 80%.
As to `Cc1ccc2cnc(-c3ccc(C)c(-c4ccccc4)n3)nc2c1` [11/12], the pest or weed control at 200 ppm was at least 80%.
In the case of `COc1cccc(OC)c1-c1cccc(-c2ncc3ccccc3n2)n1` [2/113] it was at least 80%; in that of `COc1ccc2nc(-c3ccc(C)c(-c4ccccc4)n3)nc(C)c2c1` [11/20], at least 80%.
The result for `Clc1ccc(Cc2cccc(-c3ncc4ccccc4n3)n2)c(Cl)c1` [6/37] reads at least 80%; that for `Cc1ccc(-c2nc(-c3ncc4ccccc4n3)ccc2C)cc1[N+](=O)[O-]` [3/120], at least 80%; that for `COCCOc1nc(-c2cccc(Cc3ccccc3)n2)nc2ccccc12` [12/10], at least 80%.
The result for `COC(=O)c1cccc(-c2nc(-c3ncc4ccccc4n3)ccc2C)c1` [3/123] reads at least 80%.
Take `Cc1ccc(-c2nc(C)c3cccc(Cl)c3n2)nc1-c1ccccc1` [11/14]: the pest or weed control at 200 ppm was at least 80%.
In the case of `Clc1cccc(-c2cccc(-c3ncc4ccccc4n3)n2)c1Cl` [2/50] it was at least 80%.
In the case of `CCCCc1nc(-c2cccc(Cc3ccccc3)n2)nc2ccccc12` [12/5] it was at least 80%; in that of `N#Cc1ccccc1Cc1cccc(-c2ncc3ccccc3n2)n1` [6/32], at least 80%; in that of `Cc1ccc(-c2ncc3ccccc3n2)nc1-c1cccc([N+](=O)[O-])c1` [3/104], at least 80%.
On to `Cc1ccc(-c2ncc3cccc(C)c3n2)nc1-c1ccccc1` [11/15], for which the pest or weed control at 200 ppm is at least 80%.
On to `COc1ccc(-c2nc(-c3ncc4ccccc4n3)ccc2OC)cc1` [14/3], for which the pest or weed control at 200 ppm was at least 80%.
The result for `CCOc1ccc(-c2nc(-c3ncc4ccccc4n3)ccc2C)cc1` [3/107] reads at least 80%; that for `c1ccc(-c2ccccc2Cc2cccc(-c3ncc4ccccc4n3)n2)cc1` [6/21], at least 80%.
The result for `Cc1ccccc1Cc1nc(-c2ncc3ccccc3n2)ccc1C` [7/20] reads at least 80%; that for `CC(=O)c1ccccc1-c1cccc(-c2ncc3ccccc3n2)n1` [2/105], at least 80%.
Turning to `Cc1ccc(-c2ncc3ccccc3n2)nc1-c1cccc(-c2ccccc2)c1` [3/134], the pest or weed control at 200 ppm is at least 80%.
In the case of `OCc1nc(-c2cccc(Cc3ccccc3)n2)nc2ccccc12` [12/16] it was at least 80%; in that of `O=Cc1ccc(-c2cccc(-c3ncc4ccccc4n3)n2)c(F)c1F` [2/111], at least 80%.
In the case of `CCOCc1ccc(-c2nc(-c3ncc4ccccc4n3)ccc2C)cc1` [3/142] it was at least 80%.

Values taken from patent US20120129875A1, “SUBSTITUTED QUINAZOLINES AS FUNGICIDES” (SYNGENTA CROP PROTECTION, LLC, priority 2009, published 2012).
